Measurements taken from patent publication US20250367185A1, “TRANSLESION SYNTHESIS POLYMERASE INHIBITORS AND USES THEREOF” (THE UNIVERSITY OF VERMONT AND STATE AGRICULTURAL COLLEGE, priority 2022, published 2025).

Experiments:
Assay type in all cases: cell-based
[1] = test system: Dengue virus; assay: Dengue virus viral load in infected A549-ACE2+ cells; settings: 10 μM, compared to non-treated cells, data at 24 hours, 48 hours and 5 days post-infection
Method: FIG. 2 is a graph showing the relative reduction of mRNA in untreated A549-ACE2+ cells (“Not Treated”) and in cells post-treatment with Compound 1 (“JH Treated”) at 24 and 48 hours post-infection with Dengue virus.
FIG. 3 is a graph showing the relative reduction of mRNA in untreated A549-ACE2+ cells and cells post treatment with Compound 1 (“JH Treated”) or untreated (“Not Treated”) 5 days post-infection with Dengue virus.
Compound 1 (10 μM) was administered to A549-ACE2+ cells infected with Dengue virus and the resulting viral loads were measured (FIGS. 2 and 3). Compared to non-treated cells, those treated with Compound 1 suppressed Dengue virus by 77-fold. Data is shown 24 hours, 48 hours, and 5 days post-infection (PI).

[2] = test system: gH2AX in SARS-CoV-2 infected A549-ACE2+ cells; assay: gH2AX expression in SARS-CoV-2 infected cells; settings: SARS-CoV-2 infected A549-ACE2+ cells at 48 hours
Method: Next, whether other genome instability markers were also repressed by the Compound 1 treatment in SARS-COV-2 infected cells was examined. Compound 1 treatment of the A549-ACE2+ cells suppressed transcript expression of all the DDR, TLS, and DNA repair genes. Likewise, the enhanced expression of gH2AX in SARS-CoV-2 infected A549-ACE2+ cells at 48 hours was suppressed by up to 40-fold post-Compound 1 treatment.

[3] = test system: SARS-CoV-2 infected A549-ACE2+ cells
[4] = test system: A549-ACE2+ cells infected with SARS-COV-2; assay: Microsatellite instability (MSI) in SARS-COV-2 infected cells
[5] = test system: p62 and LC3 in SARS-COV-2 infected cells
[6] = test system: SARS-COV-2; assay: SARS-COV-2 proliferation in cell lines, relative mRNA content
[7] = test system: DDR, TLS, and DNA repair genes in A549-ACE2+ cells

CC(C)CC(=O)c1c(Nc2ccc(C(=O)O)cc2Cl)[nH]c2c(Cl)ccc([N+](=O)[O-])c2c1=O [Compound 1, 3-chloro-4-((8-chloro-3-(3-methylbutanoyl)-5-nitro-4-oxo-1,4-dihydroquinolin-2-yl)amino)benzoic acid]
suppression of Dengue virus (viral load) [1]: 77 fold | suppression of enhanced gH2AX expression [2]: up to 40 fold | rescue of telomere instability [3]: did not rescue | SARS-COV-2-dependent MSI [4]: suppress | expression of LC3 [5]: significantly increases | expression of p62 [5]: significantly increases | proliferation of SARS-COV-2, relative mRNA content in cells ([6]; A549-ACE2+ cells): directly suppress | proliferation of SARS-COV-2, relative mRNA content in cells ([6]; Calu-3 cells): directly suppress | proliferation of SARS-COV-2, relative mRNA content in cells ([6]; Vero cells): directly suppress | transcript expression of all the DDR, TLS, and DNA repair genes [7]: suppressed
